{
  "source": "patent US20230097883A1",
  "about": "“ERGOTHIONEINE PET COMPOUNDS AND METHODS OF USE THEREOF” (VANDERBILT UNIVERSITY, priority 2021, published 2023)",
  "key": {"IBA1-positive microglia": {"tested_on": "IBA1-positive microglia", "assay": "IBA1 immunohistochemistry of brain sections after ERGO treatment", "type": "in vivo, mouse", "conditions": "ERGO-treated versus non-treated 5XFAD mice", "description": "In this study, after the PET imaging, animals (non-treated 5XFAD (n=3) and ERGO-treated 5XFAD mice (n=5)) were perfused, and the brain sections were stained with antibodies against GFAP and IBA1 for neuroinflammatory markers astrocytes and microglia, respectively.\nQuantitative analysis of the PET imaging and IHC data was performed using imageJ software. The data was imported to GraphPad Prism version 9 for Mac (GraphPad Software, San Diego, Calif., USA) for statistical analysis. Differences between groups were tested using unpaired t-test."}, "oxidative stress [1]": {"tested_on": "oxidative stress", "assay": "[11C]ERGO PET imaging of oxidative stress after ERGO treatment", "type": "in vivo, mouse", "conditions": "ERGO-treated versus non-treated 5XFAD mice, 20-min dynamic scan after IV injection", "description": "To address our primary question whether longitudinal consumption of ERGO as a potent antioxidant benefit the brain, three cohorts of animals (n=12 non-treated WT control, n=12 non-treated 5XFAD, and n=18 ERGO-treated 5XFAD) were used (FIG. 3.2A). Starting at the age of 8 weeks, the animals were treated with high doses of ERGO solution (25-50 mg/Kg) formulated in double distilled (dd) water via oral gavage three times a week over the course of eight weeks. To reduce bias in the behavioral experiments with regard to the potential stress during gavage treatment, non-treated animals underwent the identical gavage process with the vehicle, water, only. The efficacy of the therapy was evaluated by behavioral testing, followed by three different non-invasive PET imaging sessions to assess biomarkers related to AD pathology. In addition to assessing Abeta levels and glucose metabolism using the [^11C]PIB and [^18F]FDG probes, respectively; we also tested for the first time whether oxidative stress could be used as an indicator of response to therapy using the [^11C]ERGO PET radioligand. Finally, animals were euthanized, and the brains were collected for immunohistochemical analysis.\nThus, in this study, [^11C]ERGO PET radioligand was used to assess the fluctuation in oxidative stress with respect to ERGO therapy. […]"}, "[2]": {"assay": "Ex-vivo cut-and-count whole-body biodistribution of I.V.-injected [11C]ERGO in WT mice", "design": "species or system mouse", "conditions": "pharmacokinetic study"}, "oxidative stress [3]": {"tested_on": "oxidative stress", "assay": "PET imaging of LPS-induced neuroinflammation with [11C]ERGO radioligand, with Tempol blocking", "type": "in vivo, mouse", "conditions": "LPS 5 mg/Kg i.p. 24 h before; 20 MBq/0.1 mL I.V.; 30 min scan from 10 min after injection", "description": "The mice were injected with ˜20 MBq/0.1 ml 11C-ERGO via the tail vein and returned to their cages for 10 min. Then they were anesthetized with 2% isofluorane and imaged in an Inveon microPET (Siemens Pre-clinical, Knoxville, Tenn., USA) for 30 min in static mode followed by a CT scan using a NanoSPECT/CT (Mediso, Wash. D.C.) at an x-ray beam intensity of […] and x-ray voltage of 45 kVp. PET images were reconstructed using the iterative MAP reconstruction algorithm with 18 iterations and a beta smoothing value of 0.001 into 128×128×95 slices with a voxel size of 0.388 mm×0.388 mm×0.796 mm. The CT images were reconstructed into 170×170×126 slices at a voxel size of 0.4×0.4×0.4 mm^3. The PET and CT images were co-registered using the imaging tool AMIDE.\nThe mouse model of LPS-induced neuroinflammation was developed based on past reports. The LPS derived from Escherichia coli […] (Sigma Aldrich, St Louis, Mo.) was formulated in sterilized dd. water and given a high dose of LPS formulation (5 mg/Kg) through intraperitoneal injection 24 h before PET imaging. This high dose would result in approximately 12-13% body weight loss over the course of 24 h. After PET imaging, animals were sacrificed, and the brains were collected for histology analysis.\nThe reported LPS mouse model of neuroinflammation in the past was reproduced for the validation of the specificity of the probe. […]"}},
  "data": [
    {"smiles": "C[N+](C)(C)[C@@H](Cc1c[nH]c(=S)[nH]1)C(=O)[O-]", "note": "[ERGO, L-ergothioneine]", "values": [
      {"measurement": "reduction of IBA1-positive microglia", "setting": "IBA1-positive microglia", "value": "~80", "unit": "%"},
      {"measurement": "[11C]ERGO PET signal pertaining to oxidative stress in the brain", "setting": "oxidative stress [1]", "value": "very modest reduction in PET signal"}
    ]},
    {"smiles": "C[N+](C)([11CH3])[C@@H](Cc1c[nH]c(=S)[nH]1)C(=O)[O-]", "note": "[[^11C]ERGO]", "values": [
      {"measurement": "time after injection at which the concentration in the serum started to decrease", "setting": "[2]", "value": 10, "unit": "min"},
      {"measurement": "PET signal in brain regions, LPS-treated versus nontreated WT mice", "setting": "oxidative stress [3]", "value": "stronger than that from nontreated counterparts across every major region of the brain"}
    ]}
  ]
}
